Test system: canola (Brassica rapa)
Test: Test C pre-/postemergence plant response
Format: in vivo
Summary of the method: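 Formulated in a surfactant-containing non-phytotoxic solvent, compounds were tested under controlled growth conditions as preemergence and postemergence treatments. Ratings from 0 (no effect) to 100 (complete control) were assigned visually relative to controls 15 to 25 days later.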

[1] = Postemergence, 8 g ai/ha, scale 0 to 100, 0 no effect, 100 complete control
[2] = Postemergence, 16 g ai/ha, scale 0 to 100, 0 no effect, 100 complete control
[3] = Postemergence, 31 g ai/ha, scale 0 to 100, 0 no effect, 100 complete control
[4] = Postemergence, 62 g ai/ha, scale 0 to 100, 0 no effect, 100 complete control
[5] = Preemergence, 8 g ai/ha, scale 0 to 100 (0 no effect, 100 complete control)
[6] = Preemergence, 31 g ai/ha, scale 0 to 100 (0 no effect, 100 complete control)
[7] = Preemergence, 62 g ai/ha, scale 0 to 100, 0 no effect, 100 complete control
[8] = Preemergence, 16 g ai/ha, scale 0 to 100 (0 no effect, 100 complete control)

Measured: Plant response rating, Canola

Cc1cc(-c2ccc(Cl)cc2)nn1-c1c(OC(=O)CC(C)C)cnn(C)c1=O [Compound 37]
0: [1] | [2] | [3] | [4] | [5] | [6] | [7]

Cc1nn(C)c(=O)c(-n2nc(-c3ccc(Cl)cc3)cc2C)c1O [Compound 15]
0: [1] | [2] | [3] | [4] | [5] | [8] | [6] | [7]

Cc1cc(-c2ccc(C(F)(F)F)c(F)c2)nn1-c1c(O)c(C(F)(F)F)nn(C)c1=O [Compound 44]
0: [1] | [2] | [3] | [4] | [5] | [8] | [6] | [7]

— patent publication US20100267561A1, “HERBICIDAL PYRIDAZINONE DERIVATIVES” (priority 2007, published 2010)
